Consider 23 compounds from PubChem BioAssay AID330 (DTP/NCI, 2004).

The experiment has as its system P388 leukemia ip, CD2F1 mice, survival T/C. Description: NCI In Vivo Anticancer Drug Screen. Data for tumor model P388 Leukemia (intraperitoneal) in CD2F1 (CDF1) mice. To be noted: endpoint: median survival time, higher = longer survival. The method in brief: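 Mice carrying the transplanted tumor received test compound or vehicle. Survival was recorded in each group, and the value is the treated-group measurement divided by that of the vehicle-treated control group.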

Where [1] appears, read: dose: 12.5 mg/kg/injection, schedule: Q01DX005 (ip), vehicle: Klucel (hydroxypropylcellulose) (HPC).
Where [2] appears, read: dose: 25.0 mg/kg/injection, schedule: Q01DX005 (ip), vehicle: Klucel (hydroxypropylcellulose) (HPC).
Where [3] appears, read: dose: 50.0 mg/kg/injection, schedule: Q01DX005 (ip), vehicle: Klucel (hydroxypropylcellulose) (HPC).
Setting [4] is: dose: 60.0 mg/kg/injection, schedule: Q01DX005 (ip), vehicle: saline with Tween-80.
Setting [5] is: dose: 120.0 mg/kg/injection, schedule: Q01DX005 (ip), vehicle: saline with Tween-80.
Setting [6] is: dose: 240.0 mg/kg/injection, schedule: Q01DX005 (ip), vehicle: saline with Tween-80.
Setting [7] is: dose: 50.0 mg/kg/injection, schedule: Q01DX009 (ip), vehicle: saline with Tween-80.
Setting [8] is: dose: 100.0 mg/kg/injection, schedule: Q01DX009 (ip), vehicle: saline with Tween-80.
[9] abbreviates: dose: 200.0 mg/kg/injection, schedule: Q01DX009 (ip), vehicle: saline with Tween-80.
Setting [10] is: dose: 50.0 mg/kg/injection, schedule: Q01DX009 (ip), vehicle: Klucel (hydroxypropylcellulose) (HPC).
The mark [11] stands for this setting: dose: 100.0 mg/kg/injection, schedule: Q01DX009 (ip), vehicle: Klucel (hydroxypropylcellulose) (HPC).
Where [12] appears, read: dose: 200.0 mg/kg/injection, schedule: Q01DX009 (ip), vehicle: Klucel (hydroxypropylcellulose) (HPC).
Where [13] appears, read: dose: 12.5 mg/kg/injection, schedule: Q01DX009 (ip), vehicle: saline with Tween-80.
Where [14] appears, read: dose: 25.0 mg/kg/injection, schedule: Q01DX009 (ip), vehicle: saline with Tween-80.
[15] abbreviates: dose: 50.0 mg/kg/injection, schedule: Q01DX005 (ip), vehicle: saline with Tween-80.
Setting [16] is: dose: 100.0 mg/kg/injection, schedule: Q01DX005 (ip), vehicle: saline with Tween-80.
[17] abbreviates: dose: 100.0 mg/kg/injection, schedule: Q01DX005 (ip), vehicle: Klucel (hydroxypropylcellulose) (HPC).

The structures appear in SMILES notation. Several values for one entry are separate records, joined by “and”; a condition that tells them apart may be missing. Equal values may be shown once. Toxic doses and inconclusive results are not listed.

`CCN(CC)CCOC12CC3CC(CC(C3)C1)C2`: the T/C is, setting by setting: under setting [1], 104 % of control; under setting [2], 101 % of control; under setting [3], 100 % of control and 104 % of control.

For the compound `Cc1cc2[nH]c3c(C#N)c(OC(=O)N(C)C)c(-c4ccccc4)c(=O)n3c2cc1C`, the T/C runs as follows: under setting [4], 97 % of control; under setting [5], 90 % of control; under setting [6], 92 % of control.

Regarding `CS(=O)C/C(=C/CCCl)c1ccc(F)cc1` (stereo unspecified), the T/C is 101 % of control under setting [7], 105 % of control under setting [8] and 96 % of control under setting [9].

In the case of `CCC1=C[C@H]2CN(CCc3c([nH]c4ccccc34)[C@@](C(=O)OC)(c3cc4c(cc3OC)N(C)[C@H]3C(C(=O)OC)=C[C@]5(CC)C=CCN6CC[C@]43[C@@H]65)C2)C1`, the T/C runs as follows: (dose: 1.0 mg/kg/injection, schedule: Q01DX001 (ip), vehicle: other) 101 % of control; (dose: 2.0 mg/kg/injection, schedule: Q01DX001 (ip), vehicle: other) 99 % of control; (dose: 4.0 mg/kg/injection, schedule: Q01DX001 (ip), vehicle: other) 105 % of control; (dose: 8.0 mg/kg/injection, schedule: Q01DX001 (ip), vehicle: other) 107 % of control and 120 % of control; (dose: 16.0 mg/kg/injection, schedule: Q01DX001 (ip), vehicle: distilled water + Tween-80) 124 % of control; (dose: 16.0 mg/kg/injection, schedule: Q01DX001 (ip), vehicle: other) 113 % of control. Besides, the T/C (dose: 64.0 mg/kg/injection, schedule: Q01DX001 (ip), vehicle: distilled water + Tween-80) is 171 % of control; the T/C (dose: 64.0 mg/kg/injection, schedule: Q01DX001 (ip), vehicle: other) was 121 % of control; the T/C (dose: 128.0 mg/kg/injection, schedule: Q01DX001 (ip), vehicle: other) is 183 % of control.

Regarding `CC(C)(C)NC(=O)C(F)(F)C(F)(F)C(F)(F)C(=O)NC(C)(C)C`, the T/C reads like this: (dose: 100.0 mg/kg/injection, schedule: Q04DX003 (ip), vehicle: saline) 91 % of control; (dose: 200.0 mg/kg/injection, schedule: Q04DX003 (ip), vehicle: saline) 100 % of control; (dose: 400.0 mg/kg/injection, schedule: Q04DX003 (ip), vehicle: saline) 99 % of control.

For `COc1ccc(-c2cncnc2N)cc1OC`, the T/C runs as follows: under setting [10], 95 % of control; under setting [11], 97 % of control; under setting [12], 89 % of control.

For `CCN(CC)C(=O)c1cccc(COc2ccc(N3C(N)=NC(N)=NC3(C)C)cc2Cl)c1`, the T/C by setting is: (dose: 50.0 mg/kg/injection, schedule: Q01DX009 (ip), vehicle: saline sonified) 90 % of control; (dose: 50.0 mg/kg/injection, schedule: Q04DX003 (ip), vehicle: saline sonified) 109 % of control; (dose: 100.0 mg/kg/injection, schedule: Q01DX009 (ip), vehicle: saline sonified) 109 % of control; (dose: 100.0 mg/kg/injection, schedule: Q04DX003 (ip), vehicle: saline sonified) 100 % of control.

On to `NC(N)=N/N=C1\C/C(=N\N=C(N)N)c2ccccc21`, for which the T/C was 99 % of control (dose: 6.25 mg/kg/injection, schedule: Q01DX009 (ip), vehicle: saline with Tween-80); 97 % of control under setting [13]; 107 % of control (dose: 25.0 mg/kg/injection, schedule: Q01DX001 (ip), vehicle: saline with Tween-80); 91 % of control under setting [14]; 100 % of control (dose: 50.0 mg/kg/injection, schedule: Q01DX001 (ip), vehicle: saline with Tween-80).

On to `O=S1(=O)C=C(Cl)C1`, for which the T/C runs as follows: under setting [15], 110 % of control; under setting [16], 96 % of control.

On to `C=C(Cl)C(=NC(C)(C)C)Nc1cccc(Cl)c1`, for which the T/C was 112 % of control (dose: 6.25 mg/kg/injection, schedule: Q01DX005 (ip), vehicle: Klucel (hydroxypropylcellulose) (HPC)); 114 % of control under setting [1]; 112 % of control under setting [2]; 105 % of control under setting [3]; 115 % of control under setting [17]; 118 % of control (dose: 200.0 mg/kg/injection, schedule: Q01DX005 (ip), vehicle: Klucel (hydroxypropylcellulose) (HPC)).

For `O=C(c1ccccc1)C(O)(CC(c1ccccc1)[P+](c1ccccc1)(c1ccccc1)c1ccccc1)c1ccccc1` (stereo unspecified), the T/C is 90 % of control (dose: 1.32 mg/kg/injection, schedule: Q01DX009 (ip), vehicle: saline with Tween-80); 104 % of control (dose: 2.0 mg/kg/injection, schedule: Q01DX009 (ip), vehicle: saline with Tween-80); 113 % of control (dose: 3.0 mg/kg/injection, schedule: Q01DX009 (ip), vehicle: saline with Tween-80); 118 % of control (dose: 4.5 mg/kg/injection, schedule: Q01DX009 (ip), vehicle: saline with Tween-80).

As to `CC(=O)n1nc(C)c(-c2onc3ccc(Cl)cc23)c1C`, the T/C under setting [10] is 104 % of control, the T/C under setting [11] is 101 % of control and the T/C under setting [12] is 90 % of control.

Consider `COc1ccc(NC(=S)C#N)cc1`, for which the T/C is 99 % of control (dose: 15.0 mg/kg/injection, schedule: Q01DX005 (ip), vehicle: saline with Tween-80); 99 % of control (dose: 30.0 mg/kg/injection, schedule: Q01DX005 (ip), vehicle: saline with Tween-80); 99 % of control and 117 % of control under setting [4].

`COc1cc([C@@H]2Oc3c(OC)cc4ccc(=O)oc4c3O[C@H]2CO)ccc1O`: the T/C is 87 % of control (dose: 200.0 mg/kg/injection, schedule: Q01DX005 (ip), vehicle: saline + alcohol) and 94 % of control (dose: 300.0 mg/kg/injection, schedule: Q01DX005 (ip), vehicle: saline + alcohol).

In the case of `COC(=O)c1c(-c2ccc(OC)cc2)c(-c2ccc(OC)cc2)[nH]c(=O)c1C#N`, the T/C is, setting by setting: under setting [4], 100 % of control; under setting [5], 100 % of control; under setting [6], 99 % of control.

Consider `CN(CCO)c1ncnc2c1cnn2C`, for which the T/C (dose: 50.0 mg/kg/injection, schedule: Q01DX005 (ip), vehicle: saline) is 100 % of control; the T/C (dose: 100.0 mg/kg/injection, schedule: Q01DX005 (ip), vehicle: saline) is 101 % of control; the T/C (dose: 200.0 mg/kg/injection, schedule: Q01DX005 (ip), vehicle: saline) is 100 % of control.

Turning to `N#Cc1sc(=S)n(-c2ccccc2)c1N`, the T/C is 98 % of control (dose: 12.5 mg/kg/injection, schedule: Q01DX009 (ip), vehicle: saline); 107 % of control (dose: 25.0 mg/kg/injection, schedule: Q01DX009 (ip), vehicle: saline); 103 % of control and 104 % of control (dose: 50.0 mg/kg/injection, schedule: Q01DX009 (ip), vehicle: saline).

Take `CCN(CC)CCOC(=O)Cc1ccc2c(=O)cc(-c3ccc(C)cc3)oc2c1`: the T/C reads like this: under setting [1], 109 % of control; under setting [2], 108 % of control; under setting [3], 103 % of control and 114 % of control; under setting [17], 121 % of control.

On to `O=[N+]([O-])c1cccc2c1CCCC2`, for which the T/C reads like this: under setting [13], 100 % of control; under setting [14], 109 % of control; under setting [7], 90 % of control.

`Cc1ccc(NC(=O)N2c3ccccc3SC23CCCCC3)c(C)c1`: the T/C was 102 % of control under setting [7], 105 % of control under setting [8] and 103 % of control under setting [9].

For `Cc1c2ccncc2c(O)c2c3ccccc3n(C)c12`, the T/C under setting [1] was 108 % of control, the T/C under setting [2] is 110 % of control and the T/C under setting [3] is 108 % of control.

`CCC(=O)C(=O)NC(C)C(C)=O` (stereo unspecified): the T/C under setting [15] is 99 % of control; the T/C under setting [16] was 98 % of control; the T/C (dose: 200.0 mg/kg/injection, schedule: Q01DX005 (ip), vehicle: saline with Tween-80) was 100 % of control.

Take `COc1ccc(C2c3cc4c(cc3OC(C)(O)C2C)OCO4)c(OC)c1OC` (stereo unspecified): the T/C is, setting by setting: (dose: 100.0 mg/kg/injection, schedule: Q04DX002 (ip), vehicle: saline with Tween-80) 100 % of control; (dose: 200.0 mg/kg/injection, schedule: Q04DX002 (ip), vehicle: saline with Tween-80) 96 % of control; (dose: 400.0 mg/kg/injection, schedule: Q04DX002 (ip), vehicle: saline with Tween-80) 86 % of control.
